27 compounds from US5846720A, “Methods of determining chemicals that modulate expression of genes associated with cardiovascular disease” (Oncogene Science, Inc., priority 1996, dated 1998) can be followed below.

For one data set, the system named is MMTV promoter. Kind of data set: MMTV promoter/luciferase reporter assay (high-throughput screen I, control for specificity), M10 cells. The class given is cell-based, mouse. The note with it: Table 2, 6 h incubation; for MMTV fold inhibition relative to solvent control: transcriptional inhibitors; for MMTV fold induction relative to solvent control: transcriptional activators, original high-throughput assay. The protocol:
pMluci and pSV2Neo, an antibiotic resistance plasmid (84), were co-transfected into NIH/3T3 mouse fibroblast cells using the calcium phosphate precipitation method (85) with a commercially available kit (Pharmacia, Piscataway N.J.). Two days later, cells were transferred to media containing 0.4 mg/ml G418 and were grown for an additional 10-14 days. G418-resistant clones were isolated by standard methods. Once sufficient cell numbers were obtained, clones were analyzed based on several criteria: constitutive luciferase production, induction of luciferase expression by dexamethasone ([…], Sigma, St. Louis, Mo.), satisfactory attachment to microtiter plates used in the high-throughput screen (see section G) and acceptable standard deviation in multiple luciferase expression assays (see below for assay protocol). This analysis was carried out using the luciferase assay conditions described above. Of the clones which satisfied the above criteria for the high throughput screen, one clone, M10, was selected for use.
A general note: Reporter assays use an easily measured gene product as a stand-in for the process of interest.

In the next data set the test system is hGH promoter. Kind of data set: hGH promoter/luciferase reporter assay (high-throughput screen I), 532 cells. In kind it is cell-based, rat. The note with it: Table 2, 6 h incubation; for hGH fold inhibition relative to solvent control: transcriptional inhibitors; for hGH fold induction relative to solvent control: transcriptional activators. An excerpt: 6. a GC rat pituitary cell line, transfected with the growth hormone reporter plasmid, designated 532, deposited under ATCC Accession No. CRL 10663.

The subject of a further data set is G-CSF promoter. Kind of data set: G-CSF promoter/luciferase reporter assay (high-throughput screen I), G21 cells. The note with it: Table 2, 6 h incubation; for GCSF fold inhibition relative to solvent control: transcriptional inhibitors; for GCSF fold induction relative to solvent control: transcriptional activators.

`O=S(=O)(O)c1ccc(-c2nnc(-c3ccnc(-c4nnc(-c5ccc(S(=O)(=O)O)cc5)c(-c5ccc(S(=O)(=O)O)cc5)n4)c3)nc2-c2ccc(S(=O)(=O)O)cc2)cc1` [Chemical 1604]: the “MMTV fold inhibition relative to solvent control” value in the data set with MMTV promoter is reported as 0.97 fold. Further, the “hGH fold inhibition relative to solvent control” value with hGH promoter is 5.00 fold. Besides, the “GCSF fold inhibition relative to solvent control” value with G-CSF promoter worked out at 0.77 fold.

Turning to `CC1(C)[C@H]2CC[C@]1(C)[C@H](O)C2` [Chemical 1635], the “MMTV fold inhibition relative to solvent control” value in the data set on MMTV promoter was 0.99 fold. Further, in the data set on hGH promoter, the “hGH fold inhibition relative to solvent control” value was 9.09 fold. Besides, the “GCSF fold inhibition relative to solvent control” value with G-CSF promoter stood at 0.71 fold.

Turning to `C(=Cc1ccccn1)c1ccccn1` [Chemical 1640], the “MMTV fold inhibition relative to solvent control” value in the data set on MMTV promoter amounted to 0.59 fold. The “hGH fold inhibition relative to solvent control” value in the data set on hGH promoter came out at 5.00 fold. Moreover, the “GCSF fold inhibition relative to solvent control” value in the data set with G-CSF promoter came out at 0.79 fold.

`c1ccc(-c2nccnc2-c2ccccn2)nc1` [Chemical 1641]: the “MMTV fold inhibition relative to solvent control” value with MMTV promoter is given as 0.60 fold. Further, the “hGH fold inhibition relative to solvent control” value with hGH promoter was 5.55 fold. In addition, in the data set with G-CSF promoter, the “GCSF fold inhibition relative to solvent control” value is 0.83 fold.

On to `O=S(=O)(O)c1ccc(-c2ccnc(-c3nnc(-c4ccc(S(=O)(=O)O)cc4)c(-c4ccc(S(=O)(=O)O)cc4)n3)c2)cc1` [Chemical 1648], for which the “MMTV fold inhibition relative to solvent control” value in the data set with MMTV promoter amounted to 1.00 fold. In the data set with hGH promoter, the “hGH fold inhibition relative to solvent control” value is 7.69 fold. The “GCSF fold inhibition relative to solvent control” value in the data set with G-CSF promoter is listed as 0.86 fold.

Regarding `COC(=O)CP(=O)(OCC(F)(F)F)OCC(F)(F)F` [Chemical 1651], in the data set on MMTV promoter, the “MMTV fold inhibition relative to solvent control” value worked out at 0.70 fold. Also, the “hGH fold inhibition relative to solvent control” value in the data set on hGH promoter turned out to be 3.57 fold. The “GCSF fold inhibition relative to solvent control” value with G-CSF promoter is recorded as 0.69 fold.

For the compound `O=C(O)c1cc(C(F)(F)F)ccc1C(F)(F)F` [Chemical 1655], the “MMTV fold inhibition relative to solvent control” value in the data set with MMTV promoter was 0.81 fold. Also, the “hGH fold inhibition relative to solvent control” value in the data set on hGH promoter is recorded as 4.76 fold. Besides, in the data set with G-CSF promoter, the “GCSF fold inhibition relative to solvent control” value is on record as 0.54 fold.

In the case of `OCC1CC2C3CC(CO)C(C3)C2C1` (stereo not drawn) [Chemical 1678], the “MMTV fold induction relative to solvent control” value in the data set on MMTV promoter was 0.89 fold. In addition, the “hGH fold induction relative to solvent control” value in the data set with hGH promoter is on record as 7.08 fold. Moreover, in the data set on G-CSF promoter, the “GCSF fold induction relative to solvent control” value worked out at 0.36 fold.

Regarding `N#Cc1cccc(Br)c1` [Chemical 1703], the “MMTV fold inhibition relative to solvent control” value with MMTV promoter was 0.90 fold. Moreover, in the data set with hGH promoter, the “hGH fold inhibition relative to solvent control” value is listed as 10.00 fold. Besides, the “GCSF fold inhibition relative to solvent control” value in the data set with G-CSF promoter is recorded as 0.76 fold.

In the case of `N#Cc1ccc(Br)cc1` [Chemical 1704], the “MMTV fold inhibition relative to solvent control” value in the data set with MMTV promoter turned out to be 0.94 fold. The “hGH fold inhibition relative to solvent control” value in the data set on hGH promoter amounted to 4.16 fold. Further, the “GCSF fold inhibition relative to solvent control” value in the data set on G-CSF promoter was found to be 0.77 fold.

On to `O=C(c1ccccc1)c1ccc(Br)cc1` [Chemical 1705], for which the “MMTV fold inhibition relative to solvent control” value in the data set with MMTV promoter is 0.62 fold. In the data set with hGH promoter, the “hGH fold inhibition relative to solvent control” value was found to be 14.28 fold. For the same compound, the “GCSF fold inhibition relative to solvent control” value with G-CSF promoter was 0.54 fold.

As to `Cc1cc(=O)oc2c(CN(CC(=O)O)CC(=O)O)c(O)ccc12` [Chemical 1712], the “MMTV fold inhibition relative to solvent control” value in the data set with MMTV promoter was found to be 0.94 fold. Also, the “hGH fold inhibition relative to solvent control” value in the data set with hGH promoter is 8.33 fold. The “GCSF fold inhibition relative to solvent control” value in the data set on G-CSF promoter is listed as 0.74 fold.

`CC1(C)[C@H]2CC[C@]1(C)C(=O)C2` [Chemical 1720]: in the data set with MMTV promoter, the “MMTV fold inhibition relative to solvent control” value is listed as 0.66 fold. Further, the “hGH fold inhibition relative to solvent control” value in the data set on hGH promoter worked out at 4.76 fold. Further, the “GCSF fold inhibition relative to solvent control” value in the data set on G-CSF promoter came out at 0.65 fold.

For the compound `CCOC(=O)c1c[nH]c(=S)[nH]c1=O` [Chemical 1740], in the data set on MMTV promoter, the “MMTV fold induction relative to solvent control” value was 0.87 fold. Moreover, the “hGH fold induction relative to solvent control” value with hGH promoter is given as 17.77 fold. In the data set on G-CSF promoter, the “GCSF fold induction relative to solvent control” value stood at 0.74 fold.

Turning to `N[C@@H](CCCCNC(=O)OCc1ccccc1)C(=O)O` [Chemical 1747], the “MMTV fold induction relative to solvent control” value with MMTV promoter stood at 0.86 fold. The “hGH fold induction relative to solvent control” value in the data set with hGH promoter worked out at 6.16 fold. Further, in the data set with G-CSF promoter, the “GCSF fold induction relative to solvent control” value is on record as 0.78 fold.

In the case of `Cc1cc(=O)oc2cc(OCC(=O)O)ccc12` [Chemical 1764], the “MMTV fold inhibition relative to solvent control” value in the data set with MMTV promoter turned out to be 0.82 fold. Also, the “hGH fold inhibition relative to solvent control” value in the data set with hGH promoter turned out to be 7.14 fold. In the data set on G-CSF promoter, the “GCSF fold inhibition relative to solvent control” value came to 0.55 fold.

In the case of `Cc1c(C(=O)O)c(O)cc2c1C(=O)c1c(O)c([C@@H]3O[C@H](CO)[C@@H](O)[C@H](O)[C@H]3O)c(O)c(O)c1C2=O` [Chemical 1770], in the data set on MMTV promoter, the “MMTV fold inhibition relative to solvent control” value was determined as 0.57 fold. The “hGH fold inhibition relative to solvent control” value in the data set on hGH promoter was 10.00 fold. Further, the “GCSF fold inhibition relative to solvent control” value with G-CSF promoter was found to be 0.54 fold.

In the case of `NCCC(=O)N[C@@H](Cc1cnc[nH]1)C(=O)O` [Chemical 1771], the “MMTV fold inhibition relative to solvent control” value in the data set on MMTV promoter is 0.72 fold. For the same compound, the “hGH fold inhibition relative to solvent control” value with hGH promoter came out at 10.00 fold. Besides, the “GCSF fold inhibition relative to solvent control” value in the data set with G-CSF promoter was 0.71 fold.

For the compound `Cc1cc(C2(c3cc(C)c(O)c(CN(CC(=O)O)CC(=O)O)c3)OC(=O)c3ccccc32)cc(CN(CC(=O)O)CC(=O)O)c1O` [Chemical 1773], the “MMTV fold inhibition relative to solvent control” value with MMTV promoter is listed as 0.67 fold. Moreover, the “hGH fold inhibition relative to solvent control” value in the data set with hGH promoter worked out at 10.00 fold. Further, in the data set with G-CSF promoter, the “GCSF fold inhibition relative to solvent control” value is reported as 0.62 fold.

`N=c1cc2oc3cc(N)ccc3nc-2c2ccccc12` [Chemical 1776]: in the data set on MMTV promoter, the “MMTV fold induction relative to solvent control” value was 1.36 fold. In addition, in the data set on hGH promoter, the “hGH fold induction relative to solvent control” value is listed as 0.15 fold. Further, the “GCSF fold induction relative to solvent control” value with G-CSF promoter is 3.50 fold.

With `CN(C)C(=S)SCC#N` [Chemical 1793], the “MMTV fold induction relative to solvent control” value with MMTV promoter is on record as 1.21 fold. The “hGH fold induction relative to solvent control” value in the data set on hGH promoter was found to be 0.52 fold. For the same compound, the “GCSF fold induction relative to solvent control” value with G-CSF promoter is given as 9.50 fold.

In the case of `O=C(O)C1CCC1` [Chemical 1804], the “MMTV fold induction relative to solvent control” value with MMTV promoter came to 0.49 fold. The “hGH fold induction relative to solvent control” value in the data set with hGH promoter stood at 9.41 fold. Further, in the data set with G-CSF promoter, the “GCSF fold induction relative to solvent control” value turned out to be 1.05 fold.

In the case of `O=c1[nH]c(=O)c2nc3ccccc3nc2[nH]1` [Chemical 1890], in the data set with MMTV promoter, the “MMTV fold inhibition relative to solvent control” value is 0.58 fold. For the same compound, in the data set with hGH promoter, the “hGH fold inhibition relative to solvent control” value was 5.26 fold. Besides, the “GCSF fold inhibition relative to solvent control” value in the data set on G-CSF promoter was 0.80 fold.

In the case of `Nc1c2ccccc2nc2ccccc12` [Chemical 1904], the “MMTV fold induction relative to solvent control” value in the data set with MMTV promoter is given as 0.82 fold. Further, the “hGH fold induction relative to solvent control” value in the data set with hGH promoter is given as 0.54 fold. Further, the “GCSF fold induction relative to solvent control” value with G-CSF promoter turned out to be 4.12 fold.

In the case of `Brc1cccc(-c2ccccc2)c1` [Chemical 1994], the “MMTV fold induction relative to solvent control” value with MMTV promoter was determined as 0.63 fold. For the same compound, the “hGH fold induction relative to solvent control” value with hGH promoter is listed as 0.34 fold. Moreover, the “GCSF fold induction relative to solvent control” value with G-CSF promoter amounted to 3.29 fold.

As to `CC(C)(C)c1ccc(Br)cc1` [Chemical 2001], in the data set on MMTV promoter, the “MMTV fold induction relative to solvent control” value is given as 1.12 fold. The “hGH fold induction relative to solvent control” value with hGH promoter is given as 0.74 fold. Moreover, the “GCSF fold induction relative to solvent control” value in the data set with G-CSF promoter stood at 3.11 fold.

For `Cc1n[nH]c(C)c1Br` [Chemical 2009], the “MMTV fold inhibition relative to solvent control” value in the data set on MMTV promoter is given as 0.64 fold. The “hGH fold inhibition relative to solvent control” value in the data set with hGH promoter is given as 0.57 fold. In addition, the “GCSF fold inhibition relative to solvent control” value in the data set on G-CSF promoter is listed as 3.70 fold.
